Our source for the Ki values is patent US6022969A, “Compositions and methods for treating mast-cell mediated conditions” (AXYS Pharmaceuticals, Inc., priority 1995, dated 2000).

The target in this assay is tryptase. Nature of the assay: In vitro tryptase inhibition assay (hydrolysis of tosyl-Gly-Pro-Lys-p-nitroanilide). As to conditions: tosyl-Gly-Pro-Lys-p-nitroanilide 0.5 mM, pH 8.2, 1 h pre-incubation, room temperature. Type of assay: biochemical, human. Here is the method:
The compounds to be assayed (approximately 1 mg) were dissolved in 200 μL dimethylsulfoxide (DMSO) and diluted 1:10 into buffer containing 50 millimolar (mM) Tris-HCl (pH 8.2), 100 mM sodium chloride, and 0.05% polyoxyethylenesorbitan monolaurate (Tween-20®, available from Sigma, St. Louis, Mo.). Seven additional threefold dilutions were made from the initial dilution into the same buffer supplemented with 10% DMSO. Aliquots (50 microliters, μL) from each of the eight dilutions in the series were transferred to individual wells in a 96-well U-bottom microtiter plate. 25 μL of a stock solution of tryptase was added to each well and the samples were mixed and incubated for one hour at room temperature (tryptase was purified from human lung and skin tissue preparations, HMC-1 (human mast cell line) and also obtained from commercial sources (ICN Biomedicals, Irvine, Calif.; Athens Research & Technology, Athens, Ga.)). […] The tryptase solution was prepared by placing 60 μg/mL of tryptase into solution with 10 mM MES (2-[N-Morpholino]ethane sulfonic acid) containing 2 mM CaCl2, 20% glycerol and 50 μg/mL heparin. The enzyme reaction was initiated with the addition of the synthetic tripeptide substrate, tosyl-Gly-Pro-Lys-p-nitroanilide (available from Sigma, 25 μL; 0.5 mM final concentration).
However, Ki ' varies with the enzyme concentration used in the enzyme assay. […] The y-intercept of a replot of IC50 (ordinate) versus tryptase concentration (abscissa) produces a value for Ki '.
The inhibition constants (Ki ', micromolar (μM)) were determined for the compounds of the present invention.
For orientation: Ki means a measure of affinity in units of concentration, obtained from inhibition or displacement. The low end stands for higher affinity, the high end for lower affinity. For `NCC12CCC(CNC(=O)N3CCN(C(=O)O[C@H]4CCC[C@@H](OC(=O)N5CCN(C(=O)NCC67CCC(CN)(CC6)CC7)CC5)CCC4)CC3)(CC1)CC2` (relative stereo) [Compound 15, cis-1,5-cyclooctylene[4-(4-aminomethylbicyclo[2.2.2]oct-1-ylmethylcarbamoyl)-1-piperazinecarboxylate]], the Ki came to 302 nM.

`N=C(N)Nc1ccc(CNC(=O)CNC(=O)OC[C@H]2CC[C@H](COC(=O)NCC(=O)NCc3ccc(NC(=N)N)cc3)CC2)cc1` [Compound 1, trans-1,4-Cyclohexylenedimethylene bis(4-guanidinobenzylcarbamoylmethylaminocarboxylate)] displayed an inhibition constant (Ki) of 4 nM.

In turn, `N=C(N)Nc1ccc(CNC(=O)CNC(=O)O[C@H]2CCC[C@@H](OC(=O)NCC(=O)NCc3ccc(NC(=N)N)cc3)CCC2)cc1` [Compound 2, cis-1,5-Cyclooctylene bis(4-guanidinobenzylcarbamoylmethylaminocarboxylate)] had a Ki of 2 nM.

Regarding `NC[C@H]1CC[C@H](CNC(=O)N2CCN(C(=O)O[C@H]3CCC[C@@H](OC(=O)N4CCN(C(=O)NC[C@H]5CC[C@H](CN)CC5)CC4)CCC3)CC2)CC1` [Compound 4, cis-1,5-Cyclooctylene bis[4-((trans-4-aminomethylcyclohexylenemethylene)carbamoyl)-1-piperazinecarboxylate]], the Ki was 15.8 nM.

The molecule `N=C(N)N1CCC(CCC(=O)N2CCN(C(=O)O[C@H]3CCC[C@@H](OC(=O)N4CCN(C(=O)CCC5CCN(C(=N)N)CC5)CC4)CCC3)CC2)CC1` [Compound 5, cis-1,5-cyclooctylene bis{4-[3-(1-amidinopiperid-4-yl)propionoyl]-1-piperazinecarboxylate}] yielded a Ki of 2 nM.

On to `N=C(N)c1ccc(CCC(=O)N2CCN(C(=O)O[C@H]3CCC[C@@H](OC(=O)N4CCN(C(=O)CCc5ccc(C(=N)N)cc5)CC4)CCC3)CC2)cc1` [Compound 6, cis-1,5-cyclooctylene bis{4-[3(4-amidinophenyl)propionoyl]-1-piperazinecarboxylate}], for which the inhibitory constant (Ki) amounted to 0.37 nM. Against the preceding molecule, the Ki is about 5.4-fold lower.

`N=C(N)N1CCC(CC(=O)N2CCN(C(=O)O[C@H]3CCC[C@@H](OC(=O)N4CCN(C(=O)CC5CCN(C(=N)N)CC5)CC4)CCC3)CC2)CC1` [Compound 7, cis-1,5-cyclooctylene bis{[4-(1-amidinopiperid-4-ylacetyl)-1-piperazinecarboxylate]}] returned a Ki of 5 nM.

Take `N=C(N)N1CCC(CCNC(=O)N2CCN(C(=O)O[C@H]3CCC[C@@H](OC(=O)N4CCN(C(=O)NCCC5CCN(C(=N)N)CC5)CC4)CCC3)CC2)CC1` [Compound 8, cis-1,5-cyclooctylene bis{4-[2-(1-amidinopiperid-4-yl)ethylcarbamoyl]-1-piperazinecarboxylate}]: the Ki is 30 nM.

`NC[C@H]1CC[C@H](C(=O)N2CCN(C(=O)O[C@H]3CCC[C@@H](OC(=O)N4CCN(C(=O)[C@H]5CC[C@H](CN)CC5)CC4)CCC3)CC2)CC1` [Compound 9, cis-1,5-cyclooctylene bis[4-(trans-4-aminomethylcyclohexylcarbonyl)-1-piperazinecarboxylate]] yielded a Ki of 493 nM. Against the preceding molecule, the Ki is about 16-fold higher.

With `N=C(N)Nc1ccc(CC(=O)N2CCN(C(=O)O[C@H]3CCC[C@@H](OC(=O)N4CCN(C(=O)Cc5ccc(NC(=N)N)cc5)CC4)CCC3)CC2)cc1` [Compound 10, cis-1,5-cyclooctylene bis[4-(4-guanidinophenylacetyl)-1-piperazinecarboxylate]], the Ki was 0.47 nM.

With `N=C(N)Nc1ccc(CCC(=O)N2CCN(C(=O)O[C@H]3CCC[C@@H](OC(=O)N4CCN(C(=O)CCc5ccc(NC(=N)N)cc5)CC4)CCC3)CC2)cc1` [Compound 11, cis-1,5-cyclooctylene bis[4-[3-(4-guanidinophenyl)propionyl]-1-piperazinecarboxylate}], the inhibitory constant (Ki) turned out to be 207 nM.

The molecule `NC[C@H]1CC[C@H](CNC(=O)N2CCCN(C(=O)O[C@H]3CCC[C@@H](OC(=O)N4CCCN(C(=O)NC[C@H]5CC[C@H](CN)CC5)CC4)CCC3)CC2)CC1` [Compound 12, cis-1,5-cyclooctylene bis[4-(trans-4-aminomethylcyclohexylmethylcarbamoyl)-1-(perhydro-7H-1,4-diazepine)carboxylate]] returned a Ki of 260 nM.

As for `NCc1ccc(CNC(=O)N2CCN(C(=O)O[C@H]3CCC[C@@H](OC(=O)N4CCN(C(=O)NCc5ccc(CN)cc5)CC4)CCC3)CC2)cc1` [Compound 13, cis-1,5-cyclooctylene bis[4-(4-aminomethylbenzylcarbamoyl)-1-piperazinecarboxylate]], the affinity, expressed as Ki, was 0.13 nM. This Ki is about 2000-fold lower than that of the molecule before.

For the molecule `NCCc1ccc(CNC(=O)N2CCN(C(=O)O[C@H]3CCC[C@@H](OC(=O)N4CCN(C(=O)NCc5ccc(CCN)cc5)CC4)CCC3)CC2)cc1` [Compound 14, cis-1,5-cyclooctylene bis{4-[4-(2-aminoethyl)benzylcarbamoyl]-1-piperazinecarboxylate]], the affinity corresponds to a Ki of 1300 nM. Compared with the last molecule, the Ki is about 10000-fold higher.

The molecule `NCCc1ccc(CC(=O)N2CCN(C(=O)O[C@H]3CCC[C@@H](OC(=O)N4CCN(C(=O)Cc5ccc(CCN)cc5)CC4)CCC3)CC2)cc1` [Compound 16] returned a Ki of 1.5 nM.

With `NCCc1ccc(C(=O)N2CCN(C(=O)O[C@H]3CCC[C@@H](OC(=O)N4CCN(C(=O)c5ccc(CCN)cc5)CC4)CCC3)CC2)cc1` [Compound 17, cis-1,5-cyclooctylene bis{4-[4-(2-aminoethyl)benzoyl]-1-piperazinecarboxylate]], the Ki turned out to be 4.9 nM. Compared with the last molecule, the Ki is about 3.3-fold higher.

`CC(CN)c1ccc(C(=O)N2CCN(C(=O)O[C@H]3CCC[C@@H](OC(=O)N4CCN(C(=O)c5ccc(C(C)CN)cc5)CC4)CCC3)CC2)cc1` (stereo partly drawn) [Compound 18, cis-1,5-cyclooctylene bis{4-[4-(1-aminoprop-2-yl)benzoyl]-1-piperazinecarboxylate}]: the Ki was 713 nM.

The molecule `NCCC1CCN(C(=O)N2CCN(C(=O)O[C@H]3CCC[C@@H](OC(=O)N4CCN(C(=O)N5CCC(CCN)CC5)CC4)CCC3)CC2)CC1` [Compound 19] showed a Ki of 1510 nM.

In turn, `NCC[C@H]1CC[C@H](CC(=O)N2CCN(C(=O)O[C@H]3CCC[C@@H](OC(=O)N4CCN(C(=O)C[C@H]5CC[C@H](CCN)CC5)CC4)CCC3)CC2)CC1` [Compound 20, cis-1,5-cyclooctylene bis{4-[trans-4-(2-aminoethyl)cyclohexylacetyl]-1-piperazinecarboxylate}] gave a Ki of 0.81 nM.

With `NCCC1CCC(C(=O)N2CCN(C(=O)O[C@H]3CCC[C@@H](OC(=O)N4CCN(C(=O)C5CCC(CCN)CC5)CC4)CCC3)CC2)CC1` (stereo partly drawn) [Compound 22, cis-1,5-cyclooctylene bis{4-[4-(2-aminoethyl)cyclohexylcarbonyl]-1-piperazinecarboxylate]], the Ki amounted to 9 nM.

On to `NCC1CCN(C(=O)NCC2CCN(C(=O)OC[C@H]3CC[C@H](COC(=O)N4CCC(CNC(=O)N5CCC(CN)CC5)CC4)CC3)CC2)CC1` [Compound 23, trans-1,4-cyclohexylenedimethylene bis{4-[4(aminomethyl)piperid-1-ylcarbonylaminomethyl]-1-piperidinecarboxylate}], for which affinity was put at a Ki of 119 nM. Compared with the last molecule, the Ki is about 13-fold higher.

Regarding `N=C(N)c1ccc(CC(=O)N2CCN(C(=O)O[C@H]3CCC[C@@H](OC(=O)N4CCN(C(=O)Cc5ccc(C(=N)N)cc5)CC4)CCC3)CC2)cc1` [Compound 24, cis-1,5-cyclooctylene bis[4-(4-amidinophenylacetyl)-1-piperazinecarboxylate)], the Ki was determined as 0.16 nM. Against the preceding molecule, the Ki is about 740-fold lower.
